Experimental data from paper PMC3481155, “AhR activation underlies the CYP1A autoinduction by A-998679 in rats” (Frontiers in Genetics, 2012).

What was measured:
AhR [1] = tested on: AhR; set-up: method as in Nguyen and Bradfield, 2008; Mitchell and Elferink, 2009; details: ref Nguyen and Bradfield, 2008, Mitchell and Elferink, 2009; cited from earlier work
AhR [2] = biological target: T1, AhR (Homo sapiens, UniProt P35869); experiment: AhR nuclear translocation assay in HepG2 cells; type: cell-based; details: 2 μM
T1 construct: endogenous in cells; host or cells: HepG2
T1 sequence (P35869 11-848): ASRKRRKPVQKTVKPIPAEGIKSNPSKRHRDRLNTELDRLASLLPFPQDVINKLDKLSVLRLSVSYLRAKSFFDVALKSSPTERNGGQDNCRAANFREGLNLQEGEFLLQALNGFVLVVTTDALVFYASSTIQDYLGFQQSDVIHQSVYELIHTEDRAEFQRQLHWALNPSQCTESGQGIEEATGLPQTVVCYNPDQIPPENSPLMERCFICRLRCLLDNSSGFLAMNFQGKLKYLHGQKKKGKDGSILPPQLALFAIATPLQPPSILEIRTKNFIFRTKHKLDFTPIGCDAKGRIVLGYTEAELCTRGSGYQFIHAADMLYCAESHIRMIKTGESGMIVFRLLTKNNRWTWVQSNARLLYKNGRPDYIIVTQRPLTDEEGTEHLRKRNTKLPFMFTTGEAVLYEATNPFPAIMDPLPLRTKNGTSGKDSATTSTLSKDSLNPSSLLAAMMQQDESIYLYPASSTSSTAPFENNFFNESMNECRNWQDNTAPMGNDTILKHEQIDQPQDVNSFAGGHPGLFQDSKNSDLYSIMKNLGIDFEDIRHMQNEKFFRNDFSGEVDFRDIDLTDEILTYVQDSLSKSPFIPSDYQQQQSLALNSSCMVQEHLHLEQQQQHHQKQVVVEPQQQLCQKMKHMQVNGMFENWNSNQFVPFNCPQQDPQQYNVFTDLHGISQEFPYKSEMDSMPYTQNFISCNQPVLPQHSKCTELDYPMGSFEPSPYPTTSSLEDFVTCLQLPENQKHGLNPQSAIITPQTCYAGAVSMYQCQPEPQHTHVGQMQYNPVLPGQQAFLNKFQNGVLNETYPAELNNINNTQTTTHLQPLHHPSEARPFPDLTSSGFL
Procedure: HepG2 cells were plated in Lab-Tek II Chamber slides (Nalgene, Rochester, NY) at a seeding density of 50,000 cells/well. The cells were allowed to attach overnight and were treated for 2 h or 24 h with 10 or 40 μM A-998679, 2 μM 3-methylchloranthrene (3-MC) as a positive control, or 0.1% (v/v) DMSO vehicle. The cells were fixed in fresh 3% paraformaldehyde solution in PBS followed by a PBS wash, and were then permeabilized for 5 min using 0.2% Triton X-100 in PBS followed by another PBS wash. The cells were then incubated with blocking buffer consisting of 1% BSA/PBS solutions and immediately incubated with a 1:50 dilution of rabbit polyclonal antibody to AhR (Abcam, Cambridge, MA catalog# 63636) for 1 h at 37°C. Cells were then washed with PBS, re-blocked for 10 min, and stained with an Alexa 546 donkey anti-rabbit secondary antibody (diluted 1:200; Invitrogen Life Technologies) for 45 min at 37°C. The cells were then washed with PBS, stained with 0.5 μM Hoescht solution for 15 min, and again washed with PBS. The chamber slides were sealed and examined under the microscope. Images were acquired with a SPOT RT SE digital camera (Diagnostic Instruments, Sterling Heights, MI) mounted on a Leica (Wetzlar, Germany) DMIRE inverted florescence microscope using a 20× objective. Image acquisition was done using Metamorph® software (Molecular Devices, Sunnyvale, CA) and percent translocation of the AhR probe was quantitated using MetaXpress (Molecular Devices). Twenty microscope fields were evaluated per well (~3000–6000 cells/well).

[3] = biological target: T2, aryl hydrocarbon receptor (AhR) (Homo sapiens, UniProt P35869); experiment: AhR luciferase reporter assay in HepG2 cells; type: cell-based
T2 construct: endogenous in cells; host or cells: HepG2
T2 sequence (P35869 11-848): T1 sequence (P35869 11-848)
Procedure: HepG2 cells were transiently transfected overnight with the construct (1200 bp portion of the human CYP1A1 promoter region containing 2 copies of the functional consensus sequence for the DRE in luc2P luciferase vector (SwitchGear Genomics cat# 114555, Menlo Park, CA) using lipofectin (Invitrogen Life Technologies) at 500 ng construct per million cells. Following transfection, the cells were replated in a 96-well format and dosed for 24 h with 0.1% (v/v) DMSO vehicle, 3-MC at 0.05, 0.1, 0.5, 1, 5, 10 μM, and A-998679 at 1.5625, 3.125, 6.25, 12.5, 25, and 50 μM. Luminescence signal was generated using the Dual-Luciferase Reporter Assay System (Promega, Madison, WI) and detected with a Tecan Genios Pro reader (Männedorf, Switzerland).

AhR [4] = tested on: AhR; set-up: method as in Jinno et al., 2006; details: ref Jinno et al., 2006, read-out: reporter assay EC50; cited from earlier work

Clc1cc2c(cc1Cl)Oc1cc(Cl)c(Cl)cc1O2 [TCDD, 2,3,7,8-Tetrachlorodibenzo-p-dioxin]
binding EC50 (AhR [1]): ~ pM to nM range

Cc1ccc2cc3c(ccc4ccccc43)c3c2c1CC3 [3MC, 3-methylcholanthrene, reference compound]
AhR nuclear staining (% positive cells) 2 h (AhR [2]; 2 h, vehicle 15.6): 26.3 % positive cells | AhR nuclear staining (% positive cells) 24 h (AhR [2]; 24 h, vehicle 3.4): 11.1 % positive cells | potency to activate AhR relative to A-998679 ([3]; luciferase reporter): ~ 8 fold | EC50 ([3]; luciferase reporter with human DRE construct, 24 h, read-out: EC50, activation of AhR signaling): 2.1 µM | maximal increase over vehicle ([3]; luciferase reporter, 24 h): 97 fold

C[C@]12CCc3c(ccc4cc(O)ccc34)[C@@H]1CCC2=O [equilenin]
EC50 (AhR [4]): ~10 µM
